Where two headings read alike, the source gives them in different places.
Tests used:
[1] = target: Chlamydia trachomatis FabI (Chlamydia trachomatis serovar D (strain ATCC VR-885 / DSM 19411 / UW-3/Cx), UniProt O84106); assay: Chlamydia trachomatis FabI inhibition assay (NADH consumption); settings: read-out: CT FABI IC50; recombinant C. trachomatis FabI, 30° C., pH 7.0
Procedure: Example 65 Chlamydia trachomatis FabI Inhibition Assay
Inhibition of Chlamydia trachomatis FabI enzyme activity was tested by measuring the rate of NADH consumption (Δabsorbance at 340 nm/min) at 30° C. in 96-well plate format using an automated plate reader in the presence or absence of the test compounds. […] This dose-response inhibitory assay was performed using an 11-point, serial dilution series for each test compound. IC50 values for each test compound were assigned from logistical sigmoid curve-fitting of the inhibition dose response curves.

[2] = target: Neisseria gonorrhoeae FabI (Neisseria gonorrhoeae, UniProt A0ACH0F547); assay: Neisseria gonorrhoeae FabI inhibition assay (NADH consumption)
Neisseria gonorrhoeae FabI, sequence (A0ACH0F547 1-261): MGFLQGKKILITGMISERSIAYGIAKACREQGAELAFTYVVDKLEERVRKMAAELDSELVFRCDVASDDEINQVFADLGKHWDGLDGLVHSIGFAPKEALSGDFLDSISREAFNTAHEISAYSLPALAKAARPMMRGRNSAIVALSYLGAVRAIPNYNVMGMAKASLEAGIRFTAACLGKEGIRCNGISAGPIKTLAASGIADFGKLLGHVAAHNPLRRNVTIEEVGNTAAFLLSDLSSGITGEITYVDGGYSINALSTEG
Procedure: Neisseria gonorrhoeae FabI Inhibition Assay:
Inhibition of Neisseria gonorrhoeae FabI enzyme activity was tested by measuring the rate of NADH consumption (Δabsorbance at 340 nm/min) at 30° C. in 96-well plate format using an automated plate reader in the presence or absence of the test compounds. […] This dose-response inhibitory assay was performed using an 11-point, serial dilution series for each test compound. IC50 values for each test compound were assigned from logistical sigmoid curve-fitting of the inhibition dose response curves.

Neisseria gonorrhoeae = assay: MIC50 by CLSI agar dilution on a panel of N. gonorrhoeae clinical isolates; type: cell-based; settings: agar dilution, GC agar base, minimum of 15 clinical isolates
Procedure: MIC50: MICs were determined in accordance with the appropriate Clinical and Laboratory Standards Institute (CLSI) methodology by the agar dilution susceptbility testing method in GC agar base.

[3] = Mouse cassette PK and oral bioavailability determination; type: in vivo, Female BALB/c mice; settings: iv 1 mg/kg, po 2 mg/kg, cassette dosing; for bioavailability: female, BALB/c, mouse, plasma, read-out: Mouse F (%)
Procedure: Dose volumes were 5 ml/kg and 10 ml/kg for IV and oral administration, respectively. Compounds were co-formulated in a 10% DMSO (v/v) and 40% Captisol (w/v) in saline solution formulation (up to 3 compounds in a cassette). […] Tmax, Cmax, AUC, clearance, volume of distribution and oral bioavailability were estimated from the plasma concentrations using non-compartmental pharmacokinetic models. In particular, oral bioavailability (F %) was defined as F=(Doseiv*AUCpo)/(Dosepo*AUCiv)*100

[4] = Prediction of hepatic extraction ratio from liver microsome stability; type: in vitro ADME; settings: human liver microsomes, Well-Stirred model
Procedure: In short, the study compounds were incubated with liver microsomes supplemented with cofactors (1 mM NADPH, 1 mM UDPGA+15 mM alamethicin). At selected time points, the assays were quenched using an equal volume of cold acetonitrile and samples were analyzed by UPLC/HR-MS to monitor disappearance rate of the compounds. […] With the use of species-specific physiologically-based scaling factors (PBSF) and the Well-Stirred model of hepatic clearance as modified by Poulin et al, Journal of Pharmaceutical Sciences, vol. […] 11, November 2012, the in vitro CLint was further transformed into in vivo CLint and to hepatic extraction ratio (ER) for both mouse and human.

Caco-2 = Caco-2 permeability assay; type: in vitro ADME; settings: 120 min incubation
Procedure: (§1) Caco-2 assay: Compounds were incubated in a Caco-2 24-transwell system (Solvo Biotechnologies, Hungary) for 120 min, after which samples were taken from the donor and acceptor compartments of the transwell system. The integrity of each cell monolayer was controlled by measuring transepithelial electrical resistance (TEER) before the experiment. Lucifer yellow permeability (B to A) was also tested as a control on the same plate (all wells) after the actual experiment. The samples were analyzed using UPLC/MS/MS. The permeation of the compounds was monitored using relative LC/MS/MS peak areas (initial donor solution sample=100%).

[5] = Caco-2 permeability assay; type: in vitro ADME; settings: human, Caco-2; A2B, 120 min incubation
Procedure: as §1

[6] = Neisseria gonorrhoeae, read-out: MIC50

Chlamydia trachomatis FabI, sequence (O84106 1-298): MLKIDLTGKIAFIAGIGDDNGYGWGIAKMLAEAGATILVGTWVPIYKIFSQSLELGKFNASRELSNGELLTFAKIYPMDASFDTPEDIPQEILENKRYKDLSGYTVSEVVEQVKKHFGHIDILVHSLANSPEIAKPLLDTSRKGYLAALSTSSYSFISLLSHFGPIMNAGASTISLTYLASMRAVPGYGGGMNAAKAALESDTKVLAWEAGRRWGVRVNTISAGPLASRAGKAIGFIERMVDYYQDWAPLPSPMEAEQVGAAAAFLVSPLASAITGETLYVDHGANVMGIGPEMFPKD

| Structure (SMILES) | IC50 [1] | IC50 [2] | MIC50 (Neisseria gonorrhoeae; [6]) | bioavailability [3] | Predict Human hep ER [4] | IC50 ([2]; read-out: ngFabI IC50, recombinant N. gonorrhoeae FabI, 30° C., pH 7.2) | MIC50 (Neisseria gonorrhoeae) | Mouse F (%) [3] | Caco-2 Papp A2B (Caco-2) | Papp A→B at 120 min [5] |
| --- | --- | --- | --- | --- | --- | --- | --- | --- | --- | --- |
| COc1cccc(Oc2cccc3c(CN(C)C(=O)/C=C/c4cnc5c(c4)NCCC(=O)N5)c(C)oc23)c1 [Compound 155, (E)-N-((7-(3-methoxyphenoxy)-2-methylbenzofuran-3-yl)methyl)-N-methyl-3-(4-oxo-2,3,4,5-tetrahydro-1H-pyrido[2,3-b][1,4]diazepin-8-yl)acrylamide] | < 1 µM | < 0.01 µM | < 1 mg/L | 28% | 0.32 |  |  |  |  |  |
| O=C1CCNc2cc(/C=C/C(=O)N3C[C@H]4CC(c5ccc(Oc6ccncc6)cc5)=C[C@H]4C3)cnc2N1 (racemic) [Compound 90, 8-((E)-3-Oxo-3-((3rS,6rR)-5-(4-(pyridin-4-yloxy)phenyl)-3,3r,4,6r-tetrahydrocyclopenta[c]pyrrol-2(1H)-yl)prop-1-en-1-yl)-1,2,3,5-tetrahydro-4H-pyrido[2,3-b][1,4]diazepin-4-one] |  |  |  |  | 0.03 | < 0.01 µM | <1 mg/L | 7% | 10.7 10−6 cm/s |  |
| Cc1c(CN(C)C(=O)/C=C/c2cnc3c(c2)NC[C@H](O)C(=O)N3)oc2cccc(N)c12 [Compound 275, (E)-N-[(4-Amino-3-methyl-benzofuran-2-yl)methyl]-3-[(3S)-3-hydroxy-4-oxo-1,2,3,5-tetrahydropyrido[2,3-b][1,4]diazepin-8-yl]-N-methyl-prop-2-enamide] | < 5 µM | < 0.01 µM | < 1 mg/L | 51% |  |  |  |  |  |  |
| Cc1c(CN(C)C(=O)/C=C/c2cnc3c(c2)NCC2(CC(O)C2)C(=O)N3)oc2ccccc12 (stereo not drawn) [Compound 115, (E)-3-(3-Hydroxy-4′-oxo-1′,2′,4′,5′-tetrahydrospiro[cyclobutane-1,3′-pyrido[2,3-b][1,4]diazepin]-8′-yl)-N-methyl-N-((3-methylbenzofuran-2-yl)methyl)acrylamide] |  | < 0.01 µM | < 1 mg/L | 18% | 0.28 |  |  |  |  | 34 nm/s |
| Cc1oc2c(Oc3ccc4c(c3)OCO4)cccc2c1CN(C)C(=O)/C=C/c1cnc2c(c1)NC[C@@](C)(O)C(=O)N2 [Compound 176, (R,E)-N-((7-(benzo[d][1,3]dioxol-5-yloxy)-2-methylbenzofuran-3-yl)methyl)-3-(3-hydroxy-3-methyl-4-oxo-2,3,4,5-tetrahydro-1H-pyrido[2,3-b][1,4]diazepin-8-yl)-N-methylacrylamide] |  | < 0.01 µM | < 1 mg/L | 44% | 0.07 |  |  |  |  |  |
| Cc1oc2c(Oc3ccc4c(c3)N(C)CC4)cccc2c1CN(C)C(=O)/C=C/c1cnc2c(c1)NCCC(=O)N2 [Compound 134, (E)-N-Methyl-N-((2-methyl-7-((1-methylindolin-6-yl)oxy)benzofuran-3-yl)methyl)-3-(4-oxo-2,3,4,5-tetrahydro-1H-pyrido[2,3-b][1,4]diazepin-8-yl)acrylamide] |  | < 0.01 µM | < 1 mg/L | 9% | 0.43 |  |  |  |  |  |
